Test results as given in ChEMBL document CHEMBL4680277, “Targeting Metabolism of Extracellular Nucleotides via Inhibition of Ectonucleotidases CD73 and CD39” (J Med Chem, 2020).

Experiments:
[1] = biological target: T1, 5'-nucleotidase (Homo sapiens, UniProt P21589); experiment: Inhibition of human C-terminal 6His-tagged CD73 (1 to 547 residues) expressed in HEK293F cells using 2 uM AMP as substrate by rapidfire mass spectrometry assay
[2] = biological target: T2, Ectonucleoside triphosphate diphosphohydrolase 1 (Rattus norvegicus, UniProt P97687); experiment: Inhibition of rat CD39 expressed in CHO cells using ATP as substrate incubated for 10 mins by UV absorbance method; format: cell-based; conditions: cho
T2 sequence (P97687 whole entry): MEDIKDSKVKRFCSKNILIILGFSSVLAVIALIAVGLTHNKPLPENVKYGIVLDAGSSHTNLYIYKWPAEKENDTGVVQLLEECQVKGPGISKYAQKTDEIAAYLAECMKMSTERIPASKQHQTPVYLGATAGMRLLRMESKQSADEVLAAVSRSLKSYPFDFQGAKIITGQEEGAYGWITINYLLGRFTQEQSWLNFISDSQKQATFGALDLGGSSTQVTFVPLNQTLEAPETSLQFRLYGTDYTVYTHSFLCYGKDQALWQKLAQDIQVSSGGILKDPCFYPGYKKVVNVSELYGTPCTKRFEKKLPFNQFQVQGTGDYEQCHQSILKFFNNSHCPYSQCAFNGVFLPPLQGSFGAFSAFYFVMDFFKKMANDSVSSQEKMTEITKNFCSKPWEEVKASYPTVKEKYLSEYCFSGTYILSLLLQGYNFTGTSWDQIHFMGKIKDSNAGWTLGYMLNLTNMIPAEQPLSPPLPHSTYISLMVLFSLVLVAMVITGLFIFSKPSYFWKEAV

[3] = biological target: T3, Ectonucleoside triphosphate diphosphohydrolase 2 (Rattus norvegicus, UniProt O35795); experiment: Inhibition of rat NTPDase2 expressed in CHO cells using ATP as substrate incubated for 10 mins by UV absorbance method; format: cell-based; conditions: cho
T3 sequence (O35795 whole entry): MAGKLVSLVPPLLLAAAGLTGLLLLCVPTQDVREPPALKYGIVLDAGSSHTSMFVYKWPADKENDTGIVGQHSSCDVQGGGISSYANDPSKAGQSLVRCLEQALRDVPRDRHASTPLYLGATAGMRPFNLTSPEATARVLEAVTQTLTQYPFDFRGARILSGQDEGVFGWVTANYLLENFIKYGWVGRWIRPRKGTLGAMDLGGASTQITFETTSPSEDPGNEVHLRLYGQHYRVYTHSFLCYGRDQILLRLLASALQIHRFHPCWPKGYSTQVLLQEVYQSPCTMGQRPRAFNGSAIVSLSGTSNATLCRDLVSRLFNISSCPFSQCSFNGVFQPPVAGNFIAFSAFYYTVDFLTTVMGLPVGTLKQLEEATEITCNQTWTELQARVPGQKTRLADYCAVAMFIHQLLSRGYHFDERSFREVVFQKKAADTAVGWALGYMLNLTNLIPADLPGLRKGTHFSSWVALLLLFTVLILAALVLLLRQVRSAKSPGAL

[4] = Inhibition of rat NTPDase3 expressed in CHO cells using ATP as substrate incubated for 10 mins by UV absorbance method; format: cell-based
[5] = species: Rattus norvegicus; experiment: Inhibition of ecto-ATPase in Wistar rat cardiac synaptosomes assessed as reduction in ATP hydrolysis at 100 uM preincubated for 10 min followed by ATP addition and measured after 6 mins relative to control; format: subcellular; conditions: Heart, time 16.0 min
[6] = biological target: T1, 5'-nucleotidase; experiment: Inhibition of human C-terminal 6His-tagged CD73 ( Trp27 to Lys547 residues) expressed in CHO cells using CMP as substrate incubated for 20 mins by malachite Green assay
[7] = Half-life in human at 25 mg, iv infusion dosed once every 2 weeks; format: ADME, organism-based; conditions: in vivo
[8] = Inhibition of human FLAG-tagged CD73 Thr376Ala mutant (1 to 552 residues) assessed as reduction in adenosine formation using AMP as substrate preincubated for 10 mins followed by substrate addition and measured after 30 mins by rapidfire mass spectrometry assay

T1 sequence (P21589 whole entry, the tested form may be a part): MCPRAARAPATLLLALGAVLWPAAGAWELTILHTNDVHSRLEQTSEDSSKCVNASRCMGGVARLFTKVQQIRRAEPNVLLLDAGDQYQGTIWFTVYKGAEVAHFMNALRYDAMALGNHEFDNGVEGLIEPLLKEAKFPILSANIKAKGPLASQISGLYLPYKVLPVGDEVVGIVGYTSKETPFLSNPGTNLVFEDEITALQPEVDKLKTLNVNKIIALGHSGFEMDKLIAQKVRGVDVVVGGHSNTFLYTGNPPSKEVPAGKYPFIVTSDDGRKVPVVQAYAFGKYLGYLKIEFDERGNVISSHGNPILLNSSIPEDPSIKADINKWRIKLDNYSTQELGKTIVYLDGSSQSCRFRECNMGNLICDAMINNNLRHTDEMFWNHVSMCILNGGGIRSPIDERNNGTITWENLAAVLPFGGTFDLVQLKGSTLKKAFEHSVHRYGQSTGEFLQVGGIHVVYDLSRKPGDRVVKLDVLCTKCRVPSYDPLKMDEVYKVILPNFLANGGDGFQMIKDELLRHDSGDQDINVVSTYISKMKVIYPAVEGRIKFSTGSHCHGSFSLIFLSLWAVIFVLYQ

Row | SMILES | IC50 [1] | also measured
1 | Nc1c(S(=O)(=O)O)cc(Nc2ccc(Cl)cc2)c2c1C(=O)c1ccccc1C2=O |  | Ki [2]: 15700 nM; Ki [3]: 18000 nM; Ki [4]: 16400 nM
2 | Cc1cc(-c2ccc(/N=N/c3ccc4c(S(=O)(=O)O)cc(S(=O)(=O)O)c(N)c4c3O)c(C)c2)ccc1/N=N/c1ccc2c(S(=O)(=O)O)cc(S(=O)(=O)O)c(N)c2c1O |  | inhibition [5]: 97.2%
3 | CCOC(=O)C(OC[C@H]1C[C@@H](n2nnc3c(NC[C@@H]4CCOC4)nc(Cl)nc32)[C@H](O)[C@@H]1O)P(=O)(O)O (stereo partly drawn) |  | IC50 [6]: < 100 nM
4 | C[C@H](Nc1cc(Cl)nc2c1cnn2[C@@H]1O[C@H](COP(=O)(O)CP(=O)(O)O)[C@@H](O)[C@H]1O)c1ccccc1F |  | half-life [7]: 74 h
5 | O=c1[nH]cc(-c2cc(C3CCC3)c(Cl)nn2)c(=O)[nH]1 | < 62 nM | 
6 | N#Cc1nnc(-c2c[nH]c(=O)[nH]c2=O)cc1C1CCC1 | < 62 nM | 
7 | COc1nnc(-c2c[nH]c(=O)[nH]c2=O)cc1C1CCC(F)(F)C1 (stereo not drawn) | < 62 nM | IC50 ([1]; hek293f): < 62 nM
8 | O=c1[nH]cc(-c2cc([C@H]3C[C@@H]3C(F)F)cnn2)c(=O)[nH]1 | < 62 nM | 
9 | O=c1[nH]cc(-c2cc(C3CC(F)(F)C3)c(Cl)nn2)c(=O)[nH]1 | < 62 nM | 
10 | O=c1[nH]cc(-c2cc([C@H]3C[C@@H]3C(F)F)c(Cl)nn2)c(=O)[nH]1 | < 62 nM | 
11 | NC(=O)c1cc2c(c(Cl)c1O)NCCOCCCCCc1cc(cc3[nH]ccc13)NS2(=O)=O |  | IC50 [8]: 4 nM

More lines, main results first:

Row | IC50 [1] | SMILES | also measured
12 | < 62 nM | N#Cc1nnc(-c2c[nH]c(=O)[nH]c2=O)cc1[C@H]1C[C@@H]1C(F)F | 
13 | < 62 nM | COc1nnc(-c2c[nH]c(=O)[nH]c2=O)cc1C1CC(C)(C)C1 | 
14 | < 62 nM | N#Cc1nnc(-c2c[nH]c(=O)[nH]c2=O)cc1C1CC1 | 
15 | < 62 nM | CC(F)(F)[C@H]1C[C@@H]1c1cc(-c2c[nH]c(=O)[nH]c2=O)nnc1Cl | 
16 | < 62 nM | CC1(C)CC(c2cc(-c3c[nH]c(=O)[nH]c3=O)nnc2Cl)C1 | 
17 | < 62 nM | COc1nnc(-c2c[nH]c(=O)[nH]c2=O)cc1C1CC1 | 
18 | < 62 nM | COc1nnc(-c2c[nH]c(=O)[nH]c2=O)cc1C1CCC1 | 
19 | < 62 nM | CC[C@H]1C[C@@H]1c1cc(-c2c[nH]c(=O)[nH]c2=O)nnc1C#N | 
20 | < 62 nM | Cc1nnc(-c2c[nH]c(=O)[nH]c2=O)cc1[C@H]1C[C@@H]1CCF | 
